According to patent publication US6852673B2, “Herbicidal pyridine compounds” (BASF Aktiengesellschaft, priority 1998, dated 2005):

How the values were obtained:
Type in all cases: in vivo
Glycine max (GLXMA) [1] = assay: Post-emergence herbicidal evaluation, soyabeans; settings: rated 2 to 4 weeks after treatment
Protocol: (§1) [table] [table] […] These acetone solutions are diluted with water and the resulting formulations applied at dosage levels equivalent of about 0.03 to 0.4 kg per hectare of test compound per pot. After spraying the plants are placed on greenhouse benches and are cared for in the usual manner, commensurate with conventional greenhouse practices. From 2 to 4 weeks after treatment, the seedling plants are examined and rated according to the rating system provided above. A rating 0 indicates growth as untreated control, a rating 9 indicates death.

Hordeum vulgare (HORVW) = assay: Pre-emergence herbicidal evaluation, winter barley
In short: (§2)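 Seeds planted in potting soil, then pots sprayed pre-emergence with aqueous acetone solution of test compound at about 0.0125 to 0.4 kg/ha. Kept under standard greenhouse care; injury rated 2 to 4 weeks after treatment.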

[2] = system: Ambrosia artemiisifolia (AMBEL); assay: Pre-emergence herbicidal evaluation, ragweed
From the text: (§3) The pre-emergence herbicidal activity of the compounds of the present invention is exemplified by the following test in which the seeds of a variety of monocotyledonous and dicotyledonous plants are seperately mixed with potting soil and planted on top of approximately one inch of soil in separate pots. After planting, the pots are sprayed with the selected aqueous acetone solution containing test compound in sufficient quantity to provide the equivalent of about 0.0125 to 0.4 kg per hectare of test compound per pot. The treated pots are then placed on greenhouse benches, watered and cared for in accordance with conventional greenhouse procedures. From 2 to 4 weeks after treatment, the tests are terminated and each pot is examined and rated according to the rating system set forth below.

Oryza sativum (ORYSA) [3] = assay: Pre-emergence herbicidal evaluation, rice
From the text: as §3

Solanum nigrum (SOLNI) [4] = assay: Post-emergence herbicidal evaluation, black nightshade; settings: rated 2 to 4 weeks after treatment
Protocol: as §1

Glycine max (GLXMA) [5] = assay: Pre-emergence herbicidal evaluation, soyabeans
From the text: as §3

[6] = system: Ipomoea hederacea (IPOHE); assay: Post-emergence herbicidal evaluation, morning glory; settings: rated 2 to 4 weeks after treatment
Protocol: as §1

Lamium purpureum (LAMPU) [7] = assay: Post-emergence herbicidal evaluation, purple deadnettle; settings: rated 2 to 4 weeks after treatment
Protocol: as §1

Stellaria media (STEME) = assay: Post-emergence herbicidal evaluation, chickweed; settings: rated 2 to 4 weeks after treatment
Protocol: as §1

[8] = system: Ambrosia artemiisifolia (AMBEL); assay: Post-emergence herbicidal evaluation, ragweed; settings: rated 2 to 4 weeks after treatment
Protocol: as §1

[9] = system: Matricaria inodora (MATIN); assay: Post-emergence herbicidal evaluation, mayweed; settings: rated 2 to 4 weeks after treatment
Protocol: as §1

Oryza sativum (ORYSA) [10] = assay: Post-emergence herbicidal evaluation, rice; settings: rated 2 to 4 weeks after treatment
Protocol: as §1

Setaria viridis (SETVI) = assay: Pre-emergence herbicidal evaluation, green foxtail
In short: as §2

Zea mays (ZEAMX) = assay: Post-emergence herbicidal evaluation, maize; settings: rated 2 to 4 weeks after treatment
Protocol: as §1

Lamium purpureum (LAMPU) [11] = assay: Pre-emergence herbicidal evaluation, purple deadnettle
In short: as §2

[12] = system: Matricaria inodora (MATIN); assay: Pre-emergence herbicidal evaluation, mayweed
In short: as §2

Galium aparine (GALAP) [13] = assay: Pre-emergence herbicidal evaluation, cleaver
In short: as §2

Galium aparine (GALAP) [14] = assay: Post-emergence herbicidal evaluation, cleaver; settings: rated 2 to 4 weeks after treatment
Protocol: as §1

[15] = system: Abutilon theophrasti (ABUTH); assay: Pre-emergence herbicidal evaluation, velvetleaf
In short: as §2

[16] = system: Ipomoea hederacea (IPOHE); assay: Pre-emergence herbicidal evaluation, morning glory
In short: as §2

[17] = system: Echinochloa grus galli (ECHCG); assay: Pre-emergence herbicidal evaluation, barnyard grass
From the text: as §3

[18] = system: Triticum aestivum (TRZAW); assay: Post-emergence herbicidal evaluation, winter wheat; settings: rated 2 to 4 weeks after treatment
Protocol: as §1

[19] = system: Abutilon theophrasti (ABUTH); assay: Post-emergence herbicidal evaluation, velvetleaf; settings: rated 2 to 4 weeks after treatment
Protocol: as §1

[20] = system: Triticum aestivum (TRZAW); assay: Pre-emergence herbicidal evaluation, winter wheat
In short: as §2

[21] = system: Alopecurus myosuroides (ALOMY); assay: Pre-emergence herbicidal evaluation, black grass
In short: as §2

Solanum nigrum (SOLNI) [22] = assay: Pre-emergence herbicidal evaluation, black nightshade
In short: as §2

Cc1cc(OC/C=C/C(F)(F)F)nc(Oc2cc(C(F)(F)F)nn2C)c1 [Example 1, (E)-2-(1-Methyl-3-trifluoromethylpyrazol-5-yloxy)-4-methyl-6-(4,4,4-trifluorobut-2-enyloxy)pyridine]
4 (4 - Injury): ORYSA rating (Oryza sativum (ORYSA) [3]; dose 0.1 kg/ha) | GLXMA rating (Glycine max (GLXMA) [5]; dose 0.1 kg/ha) | TRZAW rating ([20]; dose 0.4 kg/ha) | ALOMY rating ([21]; dose 0.013 kg/ha) | SOLNI rating (Solanum nigrum (SOLNI) [22]; dose 0.013 kg/ha)
3 (3 - Moderate effect): ORYSA rating (Oryza sativum (ORYSA) [10]; dose 0.1 kg/ha) | ECHCG rating ([17]; dose 0.013 kg/ha) | TRZAW rating ([18]; dose 0.1 kg/ha) | TRZAW rating ([20]; dose 0.1 kg/ha)
6 (6 - Herbicidal effect): GLXMA rating (Glycine max (GLXMA) [1]; dose 0.03 kg/ha) | STEME rating (Stellaria media (STEME); dose 0.4 kg/ha) | AMBEL rating ([8]; dose 0.03 kg/ha) | ZEAMX rating (Zea mays (ZEAMX); dose 0.4 kg/ha) | ALOMY rating ([21]; dose 0.025 kg/ha)
1 (1 - Trace effect): HORVW rating (Hordeum vulgare (HORVW); dose 0.013 kg/ha) | GLXMA rating (Glycine max (GLXMA) [5]; dose 0.013 kg/ha) | GLXMA rating (Glycine max (GLXMA) [5]; dose 0.025 kg/ha) | GALAP rating (Galium aparine (GALAP) [13]; dose 0.013 kg/ha) | TRZAW rating ([20]; dose 0.013 kg/ha) | TRZAW rating ([20]; dose 0.025 kg/ha)
5 (5 - Definite injury): HORVW rating (Hordeum vulgare (HORVW); dose 0.1 kg/ha) | HORVW rating (Hordeum vulgare (HORVW); dose 0.4 kg/ha) | AMBEL rating ([2]; dose 0.013 kg/ha) | ORYSA rating (Oryza sativum (ORYSA) [3]; dose 0.4 kg/ha) | SOLNI rating (Solanum nigrum (SOLNI) [4]; dose 0.03 kg/ha) | SOLNI rating (Solanum nigrum (SOLNI) [4]; dose 0.1 kg/ha) | SOLNI rating (Solanum nigrum (SOLNI) [4]; dose 0.4 kg/ha) | GLXMA rating (Glycine max (GLXMA) [5]; dose 0.4 kg/ha) | STEME rating (Stellaria media (STEME); dose 0.03 kg/ha) | STEME rating (Stellaria media (STEME); dose 0.1 kg/ha) | ORYSA rating (Oryza sativum (ORYSA) [10]; dose 0.4 kg/ha) | ZEAMX rating (Zea mays (ZEAMX); dose 0.1 kg/ha) | IPOHE rating ([16]; dose 0.025 kg/ha) | ECHCG rating ([17]; dose 0.025 kg/ha) | TRZAW rating ([18]; dose 0.4 kg/ha)
9 (9 - Complete kill): AMBEL rating ([2]; dose 0.025 kg/ha) | AMBEL rating ([2]; dose 0.1 kg/ha) | AMBEL rating ([2]; dose 0.4 kg/ha) | IPOHE rating ([6]; dose 0.03 kg/ha) | IPOHE rating ([6]; dose 0.1 kg/ha) | IPOHE rating ([6]; dose 0.4 kg/ha) | SETVI rating (Setaria viridis (SETVI); dose 0.013 kg/ha) | SETVI rating (Setaria viridis (SETVI); dose 0.025 kg/ha) | SETVI rating (Setaria viridis (SETVI); dose 0.1 kg/ha) | SETVI rating (Setaria viridis (SETVI); dose 0.4 kg/ha) | LAMPU rating (Lamium purpureum (LAMPU) [11]; dose 0.025 kg/ha) | LAMPU rating (Lamium purpureum (LAMPU) [11]; dose 0.1 kg/ha) | LAMPU rating (Lamium purpureum (LAMPU) [11]; dose 0.4 kg/ha) | MATIN rating ([12]; dose 0.025 kg/ha) | MATIN rating ([12]; dose 0.1 kg/ha) | MATIN rating ([12]; dose 0.4 kg/ha) | GALAP rating (Galium aparine (GALAP) [13]; dose 0.4 kg/ha) | ABUTH rating ([15]; dose 0.4 kg/ha) | IPOHE rating ([16]; dose 0.4 kg/ha) | ECHCG rating ([17]; dose 0.4 kg/ha) | ALOMY rating ([21]; dose 0.4 kg/ha) | SOLNI rating (Solanum nigrum (SOLNI) [22]; dose 0.1 kg/ha) | SOLNI rating (Solanum nigrum (SOLNI) [22]; dose 0.4 kg/ha)
8 (8 - Approaching complete kill): GLXMA rating (Glycine max (GLXMA) [1]; dose 0.1 kg/ha) | GLXMA rating (Glycine max (GLXMA) [1]; dose 0.4 kg/ha) | LAMPU rating (Lamium purpureum (LAMPU) [7]; dose 0.03 kg/ha) | LAMPU rating (Lamium purpureum (LAMPU) [7]; dose 0.1 kg/ha) | LAMPU rating (Lamium purpureum (LAMPU) [7]; dose 0.4 kg/ha) | MATIN rating ([9]; dose 0.03 kg/ha) | MATIN rating ([9]; dose 0.1 kg/ha) | MATIN rating ([9]; dose 0.4 kg/ha) | LAMPU rating (Lamium purpureum (LAMPU) [11]; dose 0.013 kg/ha) | MATIN rating ([12]; dose 0.013 kg/ha) | GALAP rating (Galium aparine (GALAP) [14]; dose 0.1 kg/ha) | GALAP rating (Galium aparine (GALAP) [14]; dose 0.4 kg/ha) | ABUTH rating ([15]; dose 0.1 kg/ha) | ABUTH rating ([19]; dose 0.03 kg/ha) | ABUTH rating ([19]; dose 0.1 kg/ha) | ABUTH rating ([19]; dose 0.4 kg/ha) | ALOMY rating ([21]; dose 0.1 kg/ha) | SOLNI rating (Solanum nigrum (SOLNI) [22]; dose 0.025 kg/ha)
superior activity: activity against Setaria (Setaria viridis (SETVI)) | activity against Abutilon [15]
2 (2 - Slight effect): HORVW rating (Hordeum vulgare (HORVW); dose 0.025 kg/ha) | ORYSA rating (Oryza sativum (ORYSA) [3]; dose 0.013 kg/ha) | ORYSA rating (Oryza sativum (ORYSA) [3]; dose 0.025 kg/ha) | ORYSA rating (Oryza sativum (ORYSA) [10]; dose 0.03 kg/ha) | ZEAMX rating (Zea mays (ZEAMX); dose 0.03 kg/ha) | GALAP rating (Galium aparine (GALAP) [13]; dose 0.025 kg/ha) | IPOHE rating ([16]; dose 0.013 kg/ha) | TRZAW rating ([18]; dose 0.03 kg/ha)
7 (7 - Good herbicidal effect): AMBEL rating ([8]; dose 0.1 kg/ha) | AMBEL rating ([8]; dose 0.4 kg/ha) | GALAP rating (Galium aparine (GALAP) [13]; dose 0.1 kg/ha) | GALAP rating (Galium aparine (GALAP) [14]; dose 0.03 kg/ha) | ABUTH rating ([15]; dose 0.013 kg/ha) | ABUTH rating ([15]; dose 0.025 kg/ha) | IPOHE rating ([16]; dose 0.1 kg/ha) | ECHCG rating ([17]; dose 0.1 kg/ha)
